From patent US20250129091A1, “THIENOPYRROLOTRIAZINE COMPOUNDS, THEIR PREPARATION AND THEIR THERAPEUTIC USE” (Sanofi, priority 2022, published 2025) come the findings set out here.

In one test the test system is NLRP3 inflammasome. Description: IL-1β secretion assay (LPS-primed, nigericin-activated THP-1 cells, MSD readout). To be noted: read-out: IL1b IC50. The test is classed as cell-based. The method, then:
Monocytic THP-1 cells (DSMZ) were maintained in RPMI media (RPMI 1640 Medium (1×) +10% FBS, Eurobio CVFSVFOO—OU). Cells were then plated at 16,000 cells per well in 96-well round bottom cell culture plates (TPP, ref 92097) and maintained with RPMI and 0.1% Bovine Serum Albumin solution. Activation of the NLRP3 inflammasome requires both an NF-kB-dependent priming step and the addition of a NLRP3 activator. The priming step was induced by LPS (10 ng/mL, Sigma, ref:L4391) for 3 h at 37° C., then compound, in a 1:3.10 serial dilution series in DMSO 1:100, and the activator nigericin (Sigma Aldrich, ref: SML1779) 10 μM (final concentration) were added to the cells and co-incubated for 2 h. 50 μL supernatant was removed, and IL-1β levels were monitored using an MSD assay (Electro Chemical Luminescence Immunoassay (ECLI) according to manufacturers' instructions.
(§1) IC50 values were calculated from the plot of percentage of inhibition versus the inhibitor concentration by a logistics fit according to: y=A2+(A1−A2)/(1+(x/IC50)^p) where y is the %-inhibition at the inhibitor concentration, x. A1 is the lowest inhibition value, i.e., 0%, and A2 the maximum inhibition value, i.e., 100%. The exponent, p, is the Hill coefficient. The curve fitting was conducted with an internally developed software.

The test system of a further test is TNF-α secretion. Nature of the test: TNF-α secretion assay (PMA-differentiated THP-1 cells, LPS-triggered, MSD readout). It is filed as cell-based. The settings on record: LPS 24 h; for inhibition at 3 µM / inhibition at 10 µM: Homo sapiens. The method, then: Monocytic THP-1 cells (DSMZ) were maintained in RPMI media (RPMI 1640 Medium (1×) +10% FBS, biowest S181H). Cells were then differentiated at 160,000 cells per well in 96-well flat bottom cell culture plates with RPMI+0.1% Bovine Serum Albumin solution and 0.5 μM phorbol 12-myristate 13-acetate (PMA; Sigma, ref:P8139) overnight at 37° C. Experimental compounds were prepared and added as described above. TNF-α secretion was triggered by the addition of 0.5 μg/mL LPS (invivoGen, tlrl-3pelps) and cells were incubated for 24 h. 2.5 μL supernatant was removed, and TNF-α levels were monitored using an MSD assay (mesoscale, K15049) according to manufacturers' instructions.
as §1

Setting [1] is: Homo sapiens, THP-1, LPS-primed.

pIC50: −log10 of the molar value. Structures can show the parent of a compound that is named as a salt. Where two headings read alike, the source gives them in different places.

A word on the pIC50: it is the negative decadic logarithm of the IC50, by convention in mol/L. The inhibition is the change of the read-out against control, counted positive when it falls. For `CC(C)c1nn(CC(=O)N[C@@H]2CCCN(C3CCC3)C2)c(=O)c2cc3cc(Br)sc3n12` [Example 31, (R)-2-(2-bromo-8-isopropyl-5-oxothieno[3′,2′:4,5]pyrrolo[1,2-d][1,2,4]triazin-6(5H)-yl)-N-(1-cyclobutylpiperidin-3-yl)acetamide 2,2,2-trifluoroacetate], the pIC50 in the test on NLRP3 inflammasome (setting [1]) was 7.52. Further, the inhibition at 3 µM in the test with TNF-α secretion (compound at 3 μM) is 10.5%. Also, in the test with TNF-α secretion (compound at 10 μM), the inhibition at 10 µM worked out at 32.5%.

`CC(C)c1nn(CC(=O)N[C@@H]2CCCN(C3CC3)C2)c(=O)c2cc3ccsc3n12` [Example 4, (R)—N-(1-cyclopropylpiperidin-3-yl)-2-(8-isopropyl-5-oxothieno[3′,2′:4,5]pyrrolo[1,2-d][1,2,4]triazin-6(5H)-yl)acetamide]: the pIC50 in the test with NLRP3 inflammasome (setting [1]) was 7.27. Besides, the inhibition at 3 µM in the test with TNF-α secretion (compound at 3 μM) was 21.5%. Further, the inhibition at 10 µM in the test with TNF-α secretion (compound at 10 μM) came out at 7.5%.

Consider `CC(C)c1nn(CC(=O)N[C@@H]2CCCN(C)C2)c(=O)c2cc3cc(Br)sc3n12` [Example 8, (R)-2-(2-bromo-8-isopropyl-5-oxothieno[3′,2′:4,5]pyrrolo[1,2-d][1,2,4]triazin-6(5H)-yl)-N-(1-methylpiperidin-3-yl)acetamide], for which the pIC50 in the test on NLRP3 inflammasome (setting [1]) is 6.10. Besides, in the test with TNF-α secretion (compound at 3 μM), the inhibition at 3 µM is -10%. In addition, the inhibition at 10 µM in the test on TNF-α secretion (compound at 10 μM) was -21.8%.

As to `CC(C)c1nn(CC(=O)N[C@@H]2CCCN(C)C2)c(=O)c2cc3ccsc3n12` [Example 1, (R)-2-(8-isopropyl-5-oxothieno[3′,2′:4,5]pyrrolo[1,2-d][1,2,4]triazin-6(5H)-yl)-N-(1-methylpiperidin-3-yl)acetamide], in the test with NLRP3 inflammasome (setting [1]), the negative-log IC50 (pIC50) was 6.18. For the same molecule, in the test with TNF-α secretion (compound at 3 μM), the inhibition at 3 µM is -5.1%. The inhibition at 10 µM with TNF-α secretion (compound at 10 μM) is -17.7%.

As for `CC(C)c1nn(CC(=O)N[C@@H]2CCCN(C[C@H](C)O)C2)c(=O)c2cc3ccsc3n12` [Example 3, N—((R)-1-((S)-2-hydroxypropyl)piperidin-3-yl)-2-(8-isopropyl-5-oxothieno[3′,2′:4,5]pyrrolo[1,2-d][1,2,4]triazin-6(5H)-yl)acetamide], the pIC50 in the test with NLRP3 inflammasome (setting [1]) is 6.47. Moreover, the inhibition at 3 µM in the test on TNF-α secretion (compound at 3 μM) was found to be 3.1%. In the test on TNF-α secretion (compound at 10 μM), the inhibition at 10 µM is -8.2%.

With `CC(C)c1nn(CC(=O)N[C@@H]2CCCN(CC3CCCC3)C2)c(=O)c2cc3ccsc3n12` [Example 17, (R)—N-(1-(cyclopentylmethyl)piperidin-3-yl)-2-(8-isopropyl-5-oxothieno[3′,2′:4,5]pyrrolo [1,2-d][1,2,4]triazin-6(5H)-yl)acetamide], the pIC50 in the test on NLRP3 inflammasome (setting [1]) was 6.52. In addition, the inhibition at 3 µM in the test with TNF-α secretion (compound at 3 μM) came to 11.2%. In addition, the inhibition at 10 µM with TNF-α secretion (compound at 10 μM) is 31.4%.

With `CC(C)c1nn(CC(=O)N[C@@H]2CCCN(C)C2)c(=O)c2cc3cc(Cl)sc3n12` [Example 5, (R)-2-(2-chloro-8-isopropyl-5-oxothieno[3′,2′:4,5]pyrrolo[1,2-d][1,2,4]triazin-6(5H)-yl)-N-(1-methylpiperidin-3-yl)acetamide 2,2,2-trifluoroacetate], the pIC50 in the test with NLRP3 inflammasome (setting [1]) is 5.91. Moreover, in the test on TNF-α secretion (compound at 3 μM), the inhibition at 3 µM is -18.2%. For the same molecule, in the test on TNF-α secretion (compound at 10 μM), the inhibition at 10 µM is -14.1%.

For the molecule `CC(C)c1nn(CC(=O)NC2CN(C)CC(F)(F)C2)c(=O)c2cc3ccsc3n12` (stereo not drawn) [Example 35, N-(5,5-difluoro-1-methylpiperidin-3-yl)-2-(8-isopropyl-5-oxothieno[3′,2′:4,5]pyrrolo[1,2-d][1,2,4]triazin-6(5H)-yl)acetamide], the inhibition at 3 µM with TNF-α secretion (compound at 3 μM) was determined as 23%. Further, the inhibition at 10 µM with TNF-α secretion (compound at 10 μM) worked out at 5.7%.

In the case of `O=C(Cn1nc(C2CC2)n2c(cc3ccsc32)c1=O)N[C@@H]1CCCN(C2CC2)C1` [Example 21, (R)-2-(8-cyclopropyl-5-oxothieno[3′,2′:4,5]pyrrolo[1,2-d][1,2,4]triazin-6(5H)-yl)-N-(1-cyclopropylpiperidin-3-yl)acetamide], the pIC50 with NLRP3 inflammasome (setting [1]) is 7.22. In addition, the inhibition at 3 µM in the test on TNF-α secretion (compound at 3 μM) is 11.7%. Further, in the test with TNF-α secretion (compound at 10 μM), the inhibition at 10 µM was 13.5%.

As to `CC(C)CN1CCC[C@@H](NC(=O)Cn2nc(C(C)C)n3c(cc4ccsc43)c2=O)C1` [Example 14, (R)—N-(1-isobutylpiperidin-3-yl)-2-(8-isopropyl-5-oxothieno[3′,2′:4,5]pyrrolo[1,2-d][1,2,4]triazin-6(5H)-yl)acetamide], in the test on NLRP3 inflammasome (setting [1]), the pIC50 is 6.63. For the same molecule, in the test with TNF-α secretion (compound at 3 μM), the inhibition at 3 µM was -0.5%. The inhibition at 10 µM in the test with TNF-α secretion (compound at 10 μM) is -18.8%.

For `CC(C)c1nn(CC(=O)Nc2cncs2)c(=O)c2cc3ccsc3n12` [Example 2, 2-(8-isopropyl-5-oxothieno[3′,2′:4,5]pyrrolo[1,2-d][1,2,4]triazin-6(5H)-yl)-N-(thiazol-5-yl) acetamide], the pIC50 in the test on NLRP3 inflammasome (LPS-primed) is 6.24. The “TNF-a inhibition @ 3 μM” value in the test with TNF-α secretion (compound at 3 μM) turned out to be 3.3. The “TNF-a inhibition @ 10 μM” value in the test on TNF-α secretion (compound at 10 μM) is −51.5.

In the case of `CN1CCC[C@@H](NC(=O)Cn2nc(C3CC3)n3c(cc4ccsc43)c2=O)C1` [Example 24, (R)-2-(8-cyclopropyl-5-oxothieno[3′,2′:4,5]pyrrolo[1,2-d][1,2,4]triazin-6(5H)-yl)-N-(1-methylpiperidin-3-yl)acetamide formate], in the test on NLRP3 inflammasome (setting [1]), the pIC50 is 5.54. Further, the inhibition at 3 µM in the test with TNF-α secretion (compound at 3 μM) is 12%. Further, the inhibition at 10 µM with TNF-α secretion (compound at 10 μM) is 15.5%.

Consider `C=O.CC(C)c1nn(CC(=O)N[C@@H]2CCCN(CCO)C2)c(=O)c2cc3ccsc3n12` [Example 19, (R)—N-(1-(2-hydroxyethyl)piperidin-3-yl)-2-(8-isopropyl-5-oxothieno [3′,2′:4,5]pyrrolo[1,2-d][1,2,4]triazin-6(5H)-yl)acetamide compound with formaldehyde], for which the pIC50 in the test on NLRP3 inflammasome (Homo sapiens, LPS-primed) is 6.65. Moreover, the inhibition at 3 µM with TNF-α secretion (compound at 3 μM) was 27.7%. For the same molecule, the inhibition at 10 µM in the test with TNF-α secretion (compound at 10 μM) is -22.7%.

On to `O=C(Cn1nc(C2CC2)n2c(cc3ccsc32)c1=O)N[C@@H]1CCCN(C2CCC2)C1` [Example 20, (R)—N-(1-cyclobutylpiperidin-3-yl)-2-(8-cyclopropyl-5-oxothieno[3′,2′:4,5]pyrrolo[1,2-d][1,2,4]triazin-6(5H)-yl)acetamide], for which, in the test with NLRP3 inflammasome (setting [1]), the pIC50 was 6.73. In addition, in the test on TNF-α secretion (compound at 3 μM), the inhibition at 3 µM was -6.1%. In the test with TNF-α secretion (compound at 10 μM), the inhibition at 10 µM was -26%.

As for `CC(C)c1nn(CC(=O)Nc2ncncc2F)c(=O)c2cc3ccsc3n12` [Example 70, N-(5-fluoropyrimidin-4-yl)-2-(12-isopropyl-9-oxo-3-thia-1,10,11-triazatricyclo[6.4.0.02,6]dodeca-2(6),4,7,11-tetraen-10-yl)acetamide], the pIC50 in the test with NLRP3 inflammasome (setting [1]) is 6.83.

Take `CC(C)c1nn(CC(=O)NC2CCN(C)C(=O)C2)c(=O)c2cc3ccsc3n12` (stereo not drawn) [Example 46, 2-(8-isopropyl-5-oxothieno[3′,2′:4,5]pyrrolo[1,2-d][1,2,4]triazin-6(5H)-yl)-N-(1-methyl-2-oxopiperidin-4-yl)acetamide]: in the test on NLRP3 inflammasome (setting [1]), the pIC50 is 5.09.

`CC(C)c1nn(CC(=O)NC2C[C@@H]3C[C@H]2N(C)C3)c(=O)c2cc3ccsc3n12` (stereo in doubt) [Example 82, N-[(1R,4R)-2-methyl-2-azabicyclo[2.2.1]heptan-6-yl]-2-(8-isopropyl-5-oxothieno [3′,2′:4,5]pyrrolo[1,2-d][1,2,4]triazin-6(5H)-yl)acetamide]: the pIC50 in the test with NLRP3 inflammasome (setting [1]) is 5.35.

With `CC(C)c1nn(CC(=O)N[C@@H]2CCCN(c3nccn3C)C2)c(=O)c2cc3ccsc3n12` [Example 45, (R)-2-(8-isopropyl-5-oxothieno[3′,2′:4,5]pyrrolo[1,2-d][1,2,4]triazin-6(5H)-yl)-N-(1-(1-methyl-1H-imidazol-2-yl)piperidin-3-yl)acetamide], in the test on NLRP3 inflammasome (setting [1]), the pIC50 is 5.82.

`CC(C)c1nn(CC(=O)N[C@@H]2CCCN(C[C@@H](C)O)C2)c(=O)c2cc3ccsc3n12` [Example 78, N-[(3R)-1-[(2R)-2-hydroxypropyl]piperidin-3-yl]-2-(8-isopropyl-5-oxothieno[3′,2′:4,5]pyrrolo [1,2-d][1,2,4]triazin-6(5H)-yl)acetamide]: the pIC50 with NLRP3 inflammasome (setting [1]) is 6.49.

In the case of `COCc1nn(CC(=O)N[C@@H]2CCCN(C3CCC3)C2)c(=O)c2cc3cc(Cl)sc3n12` [Example 29, (R)-2-(2-chloro-8-(methoxymethyl)-5-oxothieno[3′,2′:4,5]pyrrolo[1,2-d][1,2,4]triazin-6(5H)-yl)-N-(1-cyclobutylpiperidin-3-yl)acetamide formate], the pIC50 in the test with NLRP3 inflammasome (setting [1]) is 5.94.

With `CC(O)c1nn(CC(=O)N[C@@H]2CCCN(C3CC3)C2)c(=O)c2cc3ccsc3n12` (single isomer, unassigned) [Example 44], in the test on NLRP3 inflammasome (LPS-primed), the pIC50 was 6.56.
